Assay results as given in paper PMC9492458, “Development and structure–activity relationships of tanshinones as selective 11β-hydroxysteroid dehydrogenase 1 inhibitors” (Natural Products and Bioprospecting, 2022).

Experiments:
mouse 11β-HSD1 = mouse 11β-HSD1 (Mus musculus, UniProt P50172); experiment: scintillation proximity assay (SPA), microsomes of HEK-293 cells transfected with mouse 11β-HSD1; conditions: for Mouse SI (selectivity index): SI = IC50(HSD2)/IC50(HSD1); for inhibition at 1 µM: read-out: Inhibitory ratio m-HSD1, at 1.0 μM, averages of three determinations
Protocol: (§1) With diverse tanshinones in hand, inhibition of human and mouse 11β-HSD1 enzymatic potency was measured by scintillation proximity assay (SPA) using microsomes containing 11β-HSD1 [46, 47]. Results are reported as the average of two or three independent experiments at each concentration.
(§2) The SPA was used to screen for inhibitors of 11β-HSDs [48], with the microsome fractions prepared from the HEK-293 cells stably transfected with either human or mouse 11β-HSD1 or 11β-HSD2 as the enzyme source. […] Reactions were initiated by the addition of 11β-HSD1 or 11β-HSD2, enzyme. […] The plates were incubated under plastic film on an orbital shaker for 120 min at room temperature before counting. The amount of [^3H]-cortisol generated in 11β-HSD1 enzyme reaction or remaining from the 11β-HSD2 enzyme reaction was captured by the beads and determined in a microplate liquid scintillation counter. The % inhibition was calculated relative to a non-inhibited control. Data were obtained from two or three independent experiments. IC50 values were calculated from concentration–response curves by a non-linear regression analysis using Prism Version 6.

mouse 11β-HSD2 = target: T1, mouse 11β-HSD2 (Mus musculus, UniProt P51661); experiment: scintillation proximity assay (SPA), microsomes of HEK-293 cells transfected with mouse 11β-HSD2
T1 sequence (P51661 1-386): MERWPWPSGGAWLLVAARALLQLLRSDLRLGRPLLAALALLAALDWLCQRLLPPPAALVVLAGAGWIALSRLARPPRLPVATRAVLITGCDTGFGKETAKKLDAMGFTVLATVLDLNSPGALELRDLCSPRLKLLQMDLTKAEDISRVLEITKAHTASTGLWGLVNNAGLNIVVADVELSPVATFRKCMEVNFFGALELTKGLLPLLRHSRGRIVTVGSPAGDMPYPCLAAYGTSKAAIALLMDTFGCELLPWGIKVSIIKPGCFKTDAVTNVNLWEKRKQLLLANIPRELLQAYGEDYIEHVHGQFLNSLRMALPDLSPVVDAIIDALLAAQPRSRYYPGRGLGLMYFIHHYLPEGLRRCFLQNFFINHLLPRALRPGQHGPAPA
Protocol: as §1, §2

human 11β-HSD1 = human 11β-HSD1 (Homo sapiens, UniProt P28845); experiment: scintillation proximity assay (SPA), microsomes of HEK-293 cells transfected with human 11β-HSD1; conditions: for inhibition at 1 µM: read-out: Inhibitory ratio h-HSD1, at 1.0 μM, averages of three determinations; for Human SI (selectivity index): Table 3, SI = IC50(HSD2)/IC50(HSD1)
Protocol: as §1, §2

human 11β-HSD2 = target: T2, human 11β-HSD2 (Homo sapiens, UniProt P80365); experiment: scintillation proximity assay (SPA), microsomes of HEK-293 cells transfected with human 11β-HSD2
T2 sequence (P80365 1-405): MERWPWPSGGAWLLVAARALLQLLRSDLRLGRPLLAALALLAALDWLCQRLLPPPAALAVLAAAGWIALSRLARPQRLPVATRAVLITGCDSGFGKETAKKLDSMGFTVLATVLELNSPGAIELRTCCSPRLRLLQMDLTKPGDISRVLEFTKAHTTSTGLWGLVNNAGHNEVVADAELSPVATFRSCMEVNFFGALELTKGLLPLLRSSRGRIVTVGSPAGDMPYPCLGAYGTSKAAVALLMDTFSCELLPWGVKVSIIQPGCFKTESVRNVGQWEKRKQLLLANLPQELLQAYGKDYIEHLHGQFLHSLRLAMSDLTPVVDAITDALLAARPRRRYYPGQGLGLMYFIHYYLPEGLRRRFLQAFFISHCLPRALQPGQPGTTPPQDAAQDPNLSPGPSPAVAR
Protocol: as §1, §2

[1] = target: T3, 11β-HSD1 in 3T3-L1 adipocytes (Mus musculus, UniProt P50172); experiment: 11β-HSD1 activity assay in 3T3-L1 adipocytes; assay type: cell-based
T3 construct: endogenous in cells; host or cells: 3T3-L1 adipocytes
Protocol: 11β-HSD1 enzyme inhibition in adipose tissue is believed to be important for achieving efficacy in vivo [11, 12]. Derivatives with potent enzymatic potency and excellent selectivity profiles (13, 14, 17, 28a, 28b and 30) were also evaluated their 11β-HSD1 inhibition in 3T3-L1 adipocyte.
The reductase activity of 11β-HSD1 in intact 3T3-L1 adipocytes was determined by measuring the rate of conversion of cortisone to cortisol. To explore the effect of compounds on 11β-HSD1 reductase activity, 3T3-L1 adipocytes were incubated for 1 h at 37 °C in serum-free DMEM containing 6.25 nmol/L [1,2-(N)^3H]-cortisone and different concentrations of compounds, according to experimental design. 0.1% DMSO was set as the vehicle control and MK544 was set as the positive control. At the end of the incubation, 80 μL of medium was pipetted into a transparent bottom 96-well plate, and 35 μL of SuperBlock Blocking Buffer containing 10 g/L of protein A-coated yttrium silicate beads and 3 mg/L of anti-cortisol antibodies was added. The mixtures were shaken in the dark for 2 h and then used for liquid scintillation readings. The inhibition effect was calculated by the following equation: Inhibition%=Data(compound)-Data(DMSO Vehicle)/Data(MK54410μM)-Data(DMSO Vehicle)×100%.

Sequence of mouse 11β-HSD1 (P50172 whole entry): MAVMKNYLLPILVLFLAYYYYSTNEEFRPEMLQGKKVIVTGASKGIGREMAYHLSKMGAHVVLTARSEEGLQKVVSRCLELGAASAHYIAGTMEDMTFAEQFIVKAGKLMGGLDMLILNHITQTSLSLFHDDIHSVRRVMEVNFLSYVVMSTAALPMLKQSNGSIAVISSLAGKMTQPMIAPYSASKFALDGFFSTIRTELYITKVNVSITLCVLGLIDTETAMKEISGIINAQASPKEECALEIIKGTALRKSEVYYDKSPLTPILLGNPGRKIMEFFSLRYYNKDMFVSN
Sequence of human 11β-HSD1 (P28845 whole entry): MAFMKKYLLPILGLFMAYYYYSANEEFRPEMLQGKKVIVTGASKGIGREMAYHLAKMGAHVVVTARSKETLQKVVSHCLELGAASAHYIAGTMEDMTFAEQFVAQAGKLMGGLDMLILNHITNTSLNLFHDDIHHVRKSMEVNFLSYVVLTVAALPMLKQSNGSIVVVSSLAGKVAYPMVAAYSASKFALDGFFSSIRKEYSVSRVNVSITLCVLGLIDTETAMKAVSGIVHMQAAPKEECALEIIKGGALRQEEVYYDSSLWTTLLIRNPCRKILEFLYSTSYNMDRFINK
T3 sequence (P50172 whole entry): as the sequence (P50172 whole entry) above

Compound	IC50 (mouse 11β-HSD1)	Mouse SI (selectivity index) (mouse 11β-HSD1; Table 3)	inhibition at 1 µM (mouse 11β-HSD1)	IC50 (mouse 11β-HSD2)	inhibition at 1 µM (human 11β-HSD1)	IC50 (human 11β-HSD1)	IC50 (human 11β-HSD2)	Human SI (selectivity index) (human 11β-HSD1)	IC50 ([1]; 1 h incubation, averages of three determinations, read-out: IC50, cellular assay on 3T3-L1 adipocyte against 11β-HSD1)	Max effect ([1]; inhibition relative to MK544 10 μM)	Mouse SI (selectivity index) (mouse 11β-HSD1; Table 1)
Cc1coc2c1C(=O)C(=O)c1c-2ccc2c1[C@H](O)[C@@H](O)CC2(C)C (racemic) [Compound 18a]	0.138 ± 0.0108 µM	> 724.1	89 ± 3.5%	> 100 µM	31.1 ± 0.2%						
C[C@H]1COC2=C1C(=O)C(=O)c1c2ccc2c1CCCC2(C)C [Compound 2, cryptotanshinone]	0.0418 ± 0.0087 µM		89.9 ± 3.7%	> 1000 µM	91.3 ± 0.1%	0.0731 ± 0.0313 µM	12.1 µM				> 23,923
Cc1coc2c1c(=O)oc1c3ccccc3ccc21 [Compound 9]			8.4%		14 ± 1.3%						
Cc1coc2c1C(=O)C(=O)c1ccccc1-2 [Compound 10]	0.0665 ± 0.0056 µM	> 150.3	89.9 ± 0.9%	> 10 µM	87.6 ± 2.2%	0.121 µM	> 10 µM	> 82.5			
Cc1coc2c1C(=O)C(=O)C=C2 [Compound 11]			33 ± 2.3%		9.9 ± 1.1%						
Cc1coc2ccc(O)cc12 [Compound 12]			12.4 ± 1.4%		10 ± 2.3%						
Cc1coc2c1C(=O)C(=O)c1c-2ccc2c1CCC(O)C2(C)C (stereo not drawn) [Compound 15]	0.0729 ± 0.0093 µM	> 1371.7	85.3 ± 0.2%	> 100 µM	40.6 ± 1.5%						
CC(=O)OC1CCc2c(ccc3c2C(=O)C(=O)c2c(C)coc2-3)C1(C)C (stereo not drawn) [Compound 16]	0.0101 ± 0.0008 µM	> 9900.9	89.3 ± 1.5%	> 100 µM	50.3 ± 2.7%	0.89 ± 0.1 µM	7.3 ± 2.2 µM	8.2			
Cc1coc2c1C(=O)C(=O)c1c-2ccc2c1C(=O)C(O)CC2(C)C (stereo not drawn) [Compound 18b]			49.4 ± 1.6%		43.2 ± 1.7%						
Cc1coc2c1C(=O)C(=O)c1c-2ccc2c1C[C@@H](O)CC2(C)C [Compound 19]	0.0484 ± 0.0066 µM	> 206.6	86.7 ± 2.1%	> 10 µM	63.9 ± 2.7%	0.32 µM	2.7 ± 0.5 µM	8.3			
Cc1coc2c1C(=O)C(=O)c1c-2ccc2c1C(=O)C(O)=CC2(C)C [Compound 20]	0.0966 ± 0.0165 µM	> 103.6	81.8 ± 1.5%	> 10 µM	38.5 ± 2.2%						
CC(=O)Oc1c2c(c3ccc4c(c3c1OC(C)=O)CCCC4(C)C)OC[C@@H]2C [Compound 21]			28.6 ± 0.3%		5.1 ± 1.8%						
Cc1c[nH]c2c1C(=O)C(=O)c1c-2ccc2c1CCCC2(C)C [Compound 24]			56 ± 2.2%		33.6 ± 0.8%						
C[C@@H](CO)C1=C(N)c2ccc3c(c2C(=O)C1=O)CCCC3(C)C [Compound 25]	0.095 ± 0.0178 µM	> 105.3	85.1 ± 0.6%	> 10 µM	35.5 ± 2.8%						
Cc1coc2c3ccc4c(c3c3[nH]c(-c5ccc(O)cc5)nc3c12)CCCC4(C)C [Compound 26]			19.2 ± 5.3%		12.8 ± 0.8%						
CC1(C)CCCc2c1ccc1c2C(=O)C(=O)c2c-1oc(Cl)c2CO [Compound 32]	0.328 ± 0.0202 µM	> 30.5	70.1 ± 1.1%	> 10 µM	21.4 ± 1.8%	> 1 µM					
Cc1c(Br)oc2c1C(=O)C(=O)c1c-2ccc2c1C=CCC2(C)C [Compound 33]	0.0393 ± 0.0076 µM	> 2551.0	87.3 ± 1.3%	> 100 µM	70 ± 0.4%	0.21 µM	1.2 ± 0.5 µM	5.8			
CC1(C)C(=O)C=Cc2c1ccc1c2C(=O)C(=O)c2c(CO)coc2-1 [Compound 34]	0.0672 ± 0.0064 µM	> 1488.1	90.8 ± 1.7%	> 100 µM	53.9 ± 1.6%	0.85 ± 0.2 µM	1.9 ± 0.3 µM	2.2			
CC(=O)OC1CCc2c(ccc3c2C(=O)C(=O)c2c(CO)coc2-3)C1(C)C (stereo not drawn) [Compound 35]	0.0219 ± 0.0079 µM	> 4575.5	83.6 ± 1.9%	> 100 µM	48.9 ± 1.9%						

The next lines start with results.

IC50 (mouse 11β-HSD1)	Mouse SI (selectivity index) (mouse 11β-HSD1; Table 3)	inhibition at 1 µM (mouse 11β-HSD1)	IC50 (mouse 11β-HSD2)	inhibition at 1 µM (human 11β-HSD1)	IC50 (human 11β-HSD1)	IC50 (human 11β-HSD2)	Human SI (selectivity index) (human 11β-HSD1)	IC50 ([1]; 1 h incubation, averages of three determinations, read-out: IC50, cellular assay on 3T3-L1 adipocyte against 11β-HSD1)	Max effect ([1]; inhibition relative to MK544 10 μM)	Compound	Mouse SI (selectivity index) (mouse 11β-HSD1; Table 1)
		25.9 ± 0.3%		33.9 ± 1.8%						Cc1c(-c2ccccc2)oc2c1C(=O)C(=O)c1c-2ccc2c1CCCC2(C)C [Compound 27a]	
		5.6 ± 0.5%		3.8 ± 1.5%						Cc1c(-c2ccc(F)cc2)oc2c1C(=O)C(=O)c1c-2ccc2c1CCCC2(C)C [Compound 27b]	
0.0069 ± 0.0012 µM	> 1451.4	70.6 ± 0.5%	> 10 µM	82.5 ± 0.9%	0.126 ± 0.0005 µM	6.1 ± 0.7 µM	48.4			Cc1c(-c2ccncc2)oc2c1C(=O)C(=O)c1c-2ccc2c1CCCC2(C)C [Compound 27c]	
		37.4 ± 2.8%		14.5 ± 1.4%						Cc1c(-c2ccsc2)oc2c1C(=O)C(=O)c1c-2ccc2c1CCCC2(C)C [Compound 27d]	
		42.9 ± 3.7%		15.1 ± 0.8%						Cc1c(-c2ccnc3ccccc23)oc2c1C(=O)C(=O)c1c-2ccc2c1CCCC2(C)C [Compound 27e]	
0.0171 ± 0.0009 µM	> 5813.9	96.6 ± 0.6%	> 100 µM	92.1 ± 2.4%	0.038 ± 0.0004 µM	5.6 ± 0.9 µM	147.9			Cc1c(CN(C)C)oc2c1C(=O)C(=O)c1c-2ccc2c1CCCC2(C)C [Compound 29a]	
0.0655 ± 0.0037 µM	> 1526.7	89.5%	> 100 µM	87.8 ± 0.8%	0.0426 ± 0.0044 µM	6.5 ± 3.6 µM	151.9			Cc1c(CN2CCCCC2)oc2c1C(=O)C(=O)c1c-2ccc2c1CCCC2(C)C [Compound 29b]	
		6.7 ± 4.3%		45.2 ± 0.7%						Cc1c(CN2CCOCC2)oc2c1C(=O)C(=O)c1c-2ccc2c1CCCC2(C)C [Compound 29c]	
0.272 ± 0.0602 µM	> 367.2	55.6 ± 1.8%	> 100 µM	67.3 ± 3.1%	0.183 ± 0.0325 µM	2.5 ± 0.6 µM	13.6			Cc1c(CN2CCN(C)CC2)oc2c1C(=O)C(=O)c1c-2ccc2c1CCCC2(C)C [Compound 29d]	
0.0566 ± 0.0007 µM	> 176.4	88.9 ± 3.5%	> 10 µM	32.6 ± 5.8%	> 1 µM					CC1(C)CCCc2c1ccc1c2C(=O)C(=O)c2c(CNc3ccccc3)coc2-1 [Compound 31a]	
		37 ± 3.2%		16.9 ± 3.7%						CC1(C)CCCc2c1ccc1c2C(=O)C(=O)c2c(CN3CCOCC3)coc2-1 [Compound 31b]	
								0.4 ± 0.1 µM	98.0 ± 0.7%	C1CCc2nnc(C34CC5CC(CC(C5)C3)C4)n2CC1 [MK544, reference compound]	
